# From a melting point compilation (Tetko et al.; mined from patent text by program, amines drawn as free bases though some values may be those of a salt)
row,SMILES,melting point [°C]
1,Cc1cc(CSCCC(=C(N)NCCc2cccc(O)c2)[N+](=O)[O-])sc1CN(C)C,114 to 115
2,CCCC1=NC(=NOC(=O)NC)SC1(C)CC (centres undefined),124 to 126
3,CC(=O)NCc1ccc(CN2CCN(c3ccncc3)CC2)cc1,164 to 166
4,CNc1ccsc1C(=O)OC,54 to 57
5,CN1CCC(c2[nH]c(=O)c3ccccc3c2-c2ccccc2)CC1,258 to 260
6,Cc1ccsc1-c1ccc(C(C)C(=O)O)cc1 (centres undefined),95 to 96
7,CCOC(=O)C(OC)c1nn(-c2ccc(Cl)cc2)c2c1CCCC2 (centres undefined),86 to 87
8,Cc1cc(Cl)c([N+](=O)[O-])cc1NCCO,110
9,COc1cc(C=C(C#N)C(N)=O)c([N+](=O)[O-])cc1OC,265 to 266
10,COc1cc(N)c([N+](=O)[O-])cc1C(F)(F)F,56
11,CCC1(CC)OC(c2ccc(S(C)(=O)=O)cc2)=CC1=O,109 to 110
12,CNc1cc(F)c(C#N)cc1F,160 to 163
13,O=[N+]([O-])c1ccc(-c2nc(-c3cccnc3)no2)cc1,163 to 166
14,O=[N+]([O-])c1ccc(OCc2ccc(F)cc2)cc1,124 to 126
15,COC(=O)C(C)(C)c1ccc(C(=O)Nc2cn3c4c(ccc3n2)OCC4)cc1,235 to 237
16,Cc1cc(Oc2ccc([N+](=O)[O-])cc2C(F)(F)F)nn1C(=O)NC(C)C,90 to 92
17,Cc1ccc([C@@H](O)[C@H](Br)C(=O)N2C(=O)O[C@H](c3ccccc3)[C@@H]2C)cc1,139
18,COCN1C(=O)OC(C)(C)c2cc(-c3cc(F)cc(C#N)c3)ccc21,169 to 171
19,COc1cc2c(c3c1OC(C)(C)C3)C(c1cccc(-c3ccco3)c1)=NC(C)(C)C2,126 to 128
20,COc1ccc(N2CCN(c3c(C)c(C)c4c(c3C)C(=O)C(C)(C)O4)CC2)cc1,144 to 146
21,COC(=O)c1cc(OCC(=O)O)cc(C(=O)OC)c1[N+](=O)[O-],151 to 152
22,Cc1ccc(S(=O)(=O)OC2=COC2)cc1,86 to 88
23,COc1cc(OCCN2CCCC2)cc2nc(-c3cc(C)nc(C)c3)[nH]c(=O)c12,227 to 229
24,N#Cc1cnc(Nc2ccc(OCCn3ccnn3)cc2)nc1-c1ccccc1,178
25,COc1ccc(C(=O)Nc2ccc(F)cc2)cc1Nc1cc(C)cc(C)c1,199 to 200
26,Cc1c(NC(=O)c2ccccc2NCc2ccc(=O)[nH]c2)cccc1C(F)(F)F,191 to 192

row,SMILES,melting point [°C]
1,O=C(CCC1C(=S)Nc2ccccc21)NCc1ccccc1 (centres undefined),114
2,Cc1nc2c(NC(=O)C(C)(C)C)c(C(O)C=Cc3ccccc3)ccn2c1C (centres undefined),194 to 195
3,CCOc1cc2c(cc1OC(C)=O)C(=O)CC1C2CCC2(C)C(OC(C)=O)CCC12 (centres undefined),195
4,COc1ccc(NS(=O)(=O)c2ccc(N3CCNC3=O)cc2)cc1OC,215 to 216
5,CC(C)(CCc1ccccc1)NCC(O)c1ccc(O)c(C(N)=O)c1 (centres undefined),154
6,CCCCOc1ccc2cc(C(=O)O)ccc2c1,175 to 180
7,CC1(C)Oc2ccc(C#N)cc2[C@@H](NC2=C(F)C(=O)CC2)[C@@H]1O (relative stereo),250 to 252
8,Cc1cc(Cn2nnc(C(N)=O)c2N)ccc1C(=O)c1ccccc1,181 to 182
9,CC(C)CN1C(=O)N(C)C2(NC(=O)NC2=O)c2ccccc21 (centres undefined),270
10,CC(C)c1onc(-c2ccccc2)c1S(=O)(=O)c1ccc(O)cc1,173 to 174
11,CSC(CC(CCCl)C(=O)c1ccccc1)C(N)C(N)=O (centres undefined),174
12,CN(C)Cc1ccc(CSCCNC(=O)NCCCCN(C)CCN(Cc2ccc(F)cc2)c2ccccn2)o1,74
13,COc1cc(CN2C(=O)CN(C)C2=O)cc(OC)c1-c1ccc(C[C@H](NC(=O)c2c(Cl)cccc2Cl)C(=O)O)cc1,248
14,COc1c(C2CCN(CCCCNC(=O)c3sc(-c4ccc(Cl)cc4)nc3CO)CC2)ccc2c1CCCC2,198 to 200
15,CCCn1nc(OCc2ccccc2)cc1/C=C/C(=O)OCC,58 to 59
16,CN(C)C(=O)Nc1cc(O)cc(O)c1,230
17,CC(=O)c1ccc2nc(N)[nH]c2c1,228 to 234
18,COc1ccc2c(C)c([N+](=O)[O-])ccc2c1C(F)(F)F,141 to 142
19,O=C(O)N1C=NN2c3cccnc3N(c3cccc(Cl)c3)CC12 (centres undefined),213 to 216
20,COc1ccc(-c2nc3c(C(N)=O)cccc3n2C)cc1,289 to 292
21,CCOP(=O)(CCCCc1ccc2ccccc2c1O)OCC,90 to 91
22,CC(C)(C)OC(=O)[C@@H]1CS[C@H](c2ccccc2)N1C(=O)CNC(=O)Nc1cccc(CCO)c1,164
23,CC(=O)NC[C@H]1CN(c2ccc(N3CCC(Cc4noc(C)n4)CC3)c(F)c2)C(=O)O1,136 to 138
24,NS(=O)(=O)c1cc(C(=O)O)cc(NCc2ccccc2)c1Sc1ccccc1,224 to 225
25,O=C(Nc1ccccc1)C(=O)c1c2n(c3ccccc13)CCNCC2,157 to 160
26,C[C@H](NC(=O)OC(C)(C)C)C(=O)N[C@H](CCC(=O)O)C(N)=O,98

row,SMILES,melting point [°C]
1,CC(C)(O)[C@H]1C[C@@H](C(=O)O)C1(C)C,98 to 99
2,CC(=O)OCC(=O)C1C(C)CC2C3CC(F)C4=CC(=O)C=CC4(C)C34OC4CC21C (centres undefined),154 to 162
3,COc1ccc2c(c1)C(C#N)c1ccccc1CO2 (centres undefined),120 to 122
4,OCC1OC(n2cnc3c(NCCc4cccs4)ncnc32)C(O)C1O (centres undefined),153 to 154
5,O=C(NC(=O)c1ccccc1F)NC1CN2CCC1CC2 (centres undefined),187 to 188
6,CC1(C)Oc2ccc(C(=O)CCC(=O)O)cc2NC1=O,226 to 228
7,CNc1ncnc(N2CCc3ccccc3CC2)c1[N+](=O)[O-],144 to 146
8,CC(=O)Nc1ccc2c(c1)C(=O)N(c1ccc3c(ccn3C)c1)C2,275 to 280
9,CCNC(=O)Oc1ccc2c(N(C)CCN3CCOCC3)noc2c1,99 to 100
10,CC(C)(C)c1nc2cc(N3CCN(S(C)(=O)=O)CC3)c(N=C=S)cc2s1,128 to 130
11,O=C(CCC(=O)N1CCC(c2ccc(Cl)cc2)CC1)c1ccc2c(c1)CCN(CC1CCCO1)CC2 (centres undefined),123 to 125
12,COC1CC(n2cc(C=CBr)c(=O)[nH]c2=O)OC1CF (centres undefined),177
13,O[C@@H](CCOc1cccc2ccccc12)c1ccccc1,76 to 78
14,C[C@@H](COc1ccc(N2CCN(c3ccncc3)CC2)cc1)CC(=O)OC(C)(C)C,112 to 113
15,Cc1ccc2c(c1)c(-c1ccnc3c(C(F)(F)F)cccc13)c(C)n2CC(=O)O,145
16,CCOC(=O)Cc1n[nH]c(=O)c2cc(Cl)c(Cl)cc12,202 to 203
17,Nc1nc(N)nc(-c2ccc(Oc3ccccc3)cc2)n1,198 to 200
18,CC#CC(O)(Cn1cncn1)c1ccc(Oc2ccc(Cl)cc2)cc1Cl (centres undefined),137
19,OC(c1ccc(Cl)cc1)c1ccc(-n2ccnc2)nc1 (centres undefined),147 to 149
20,CS(=O)(=O)c1ccc(-n2nc(C(=O)O)cc2-c2ccc(-c3ccco3)cc2)cc1F,172 to 173
21,CC(C)C(C(=O)NC1CCCCC1)N1CC(=O)NCC(=O)NCC(=O)NCC(=O)NCC(=O)NCC1=O (centres undefined),275
22,Cc1cc(C(O)(C=Cc2ccc(Cl)cc2)C(F)(F)F)ccc1N (centres undefined),126 to 129
23,CON=C(C)c1ccc2nnn(Cc3ccc4ncccc4c3)c2n1,155 to 157
24,CN(C)C(=O)c1ccccc1I,33 to 36
25,CCCCCCCCCC(=O)Nc1cc(C(=O)O)c2cc[nH]c2c1,248 to 250
26,CCCCc1cc2c3c(c[nH]c3c1)CC1C2CC(NC(=O)c2ccccc2)CN1C (centres undefined),143 to 145

row,SMILES,melting point [°C]
1,CCOC=Nc1c(C(=O)OCC)cnn1C,32 to 34
2,COc1cc2c3c(c1)c(=O)c(Cc1cccnc1)cn3-c1cc(Br)ccc1O2,49.7 to 50.9
3,CCCS(=O)(=O)c1cccc(-c2nc(=O)c3ccccc3s2)n1,174
4,COCCCS(=O)(=O)NC(=O)CCc1cc(OCC2CC2)nn1Cc1ccc(C(F)(F)F)cc1Cl,152 to 154
5,CN(C)c1ccc(/C=C\c2ccc3c(=O)[nH]ncc3c2)cc1,312 to 318
6,CCSc1cc(C#N)c(Cl)cn1,103 to 104
7,O=C(C1Cc2ccccc2N1c1ncccn1)N1CCCC1 (centres undefined),220 to 223
8,CC(=O)CSc1nc2ccccc2n1C,87 to 88
9,CC(=O)Nc1c(C#N)cnn1-c1c(F)c(F)c(C(F)(F)F)c(F)c1F,153 to 154
10,COc1ccc(-c2coc3ccc(-c4nnc(SCc5ccc(OC)c(C(F)(F)F)c5)o4)cc23)cc1,162 to 163
11,COC(=O)NNC(=S)CC1CCCCO1 (centres undefined),110
12,CC(=O)SCCc1nc[nH]n1,84 to 86
13,CC(=NNc1ccc(C(F)(F)F)cc1)C(=O)O,190 to 191
14,CCCC(=O)Nc1cc(/C=C/C(=O)OC)n(C)c1,109 to 110
15,O=C(O)[C@H]1Oc2ccc(Cl)cc2[C@@H](c2ccccc2)O1 (relative stereo),175
16,CN1C(=O)C2=C(c3ccc([N+](=O)[O-])cc3)OC(=O)C2=C1c1ccccc1,253 to 255
17,CCCCn1c(=O)c2c(NC)n(C)nc2n(Cc2ccccc2)c1=O,146 to 148
18,COc1cc2c(=O)cc(C(=O)O)n(C)c2ccc1=O,> 250
19,Cc1ccc(S(=O)(=O)OCCc2ccc3cc(Br)ccc3n2)cc1,107 to 109
20,Nc1ccccc1CS(=O)c1nc2ccccc2[nH]1 (centres undefined),164 to 165
21,CCc1noc(-c2cn(-c3cc(OC)ccc3Cl)cn2)n1,67 to 69
22,COC(=O)c1cc(NC(=O)C(N)c2ccc3c(c2)C(C)(C)CCC3(C)C)cn1C (centres undefined),122 to 124
23,COC(=O)c1nc(-c2ccc(C(F)(F)F)cc2)nc(N)c1Cl,204 to 205
24,NS(=O)(=O)c1ccc(-c2c(-c3ccccc3)noc2COCCO)cc1,110 to 121
25,CC(C)(C)NS(=O)(=O)c1cccc2c1SC(C)(C)C2,103 to 105
26,COc1ccc(NN=C(Sc2ccc(C)c(C)c2)C(C)=O)cc1,138 to 141
